# Test results from patent US10738024B2, “Compounds for treatment of angiogenesis-mediated diseases” (Indiana University Research and Technology Corporation, priority 2013, dated 2020).
# Entries after “also recorded” stand apart in the source; their conditions may differ.
# Legend:
# IL8 = experiment: qRT-PCR of NF-κB target gene IL8 in TNF-α challenged cells; type: cell-based, human; conditions: 10 ng/ml TNF-α for 24 hours; listed as SH-11052 (2)
# Experimental: Similarly, the mRNA expression of the pro-inflammatory molecules IL8, PTGS2 (COX2) and CCL2 (MCP-1), inducible by NF-κB, were analyzed in the presence of SH-11052 (2). Cells (10^5 per well) were seeded in a 6-well plate and incubated for 24 hours at 37° C. and 5% CO2. The cells were then starved in 0.1% serum-EBM-2 for 12 hours followed by incubation for an hour in the presence of different concentrations of SH-11052 (2). The cells were then challenged for 24 hours with 10 ng/ml TNF-α. Following incubation, cells were lysed and RNA was isolated using Trizol reagent (Life Technologies). cDNA was prepared from 80 ng total RNA using random primers and M-MuLV Reverse Transcriptase (New England Biolabs, Ipswich, Mass., USA). RT-PCR reactions were set up using the TaqMan Fast Gene Expression Assay Kit according to the manufacturer's instructions. FAM-labeled TaqMan probes for PTGS2 (Hs00153133_m1), CCL2 (Hs00234140_m1), IL8 (Hs00174103_m1), and control, TBP (Hs99999910_m1), genes were used to monitor the expression levels of these genes. The qRT-PCR plate was read in a ViiATM 7 qPCR system (Life Technologies) and the data were analyzed using the ΔΔCt method. The expression levels of genes were normalized to TBP gene expression and calibrated to the DMSO-treated, unstimulated sample.
# [1] = system: oxygen-induced retinopathy (OIR); experiment: Oxygen-induced retinopathy (OIR) mouse model, intravitreal injection; type: in vivo, C57BL/6 mice; conditions: single intravitreal dose, estimated 1 μM, injected P12, read P17; listed as SH-11037 (6c)
# Experimental: Particularly, neonatal C57BL/6 mice (n=3-4 pups per group) were exposed to 75% oxygen from postnatal day 7 (P7) until P12 and brought to room air to cause ischemia and extensive neovessel formation at P17. The hyperoxia obliterates the normal retinal vasculature, prompting aberrant overgrowth including intravitreal vascular tufts, once returned to normoxia. Further, mice were injected with PBS alone (vehicle) or PBS containing SH-11037 (6c) to give the estimated intravitreal concentrations of 1.0 μM using a 33G needle, under isoflurane anesthesia at the time of return to room air on P12. At P17, the mice were euthanized, eyes fixed, and retinal wholemounts were prepared.
# Wholemounts were stained with AlexaFluor488-isolectin B4 and imaged on a Zeiss LSM700 confocal microscope. Neovascular area, as a percentage of total retinal area, was calculated using ImageJ with the SWIFT_NV plugin.
Compound,mRNA expression of IL8 (IL8),neovascular area / neovascularization in vivo [1]
"COc1ccc(CC2COc3cc(OC)c(O)c(O)c3C2=O)cc1O (single isomer, unassigned) [Compound 2]",decreased the expression,–
"COc1ccc(CC2COc3cc(OC)c(OC)c(OC)c3C2=O)cc1OC(=O)[C@H](Cc1ccccc1)NC(=O)OC(C)(C)C (stereo partly drawn) [Compound 6c, (2S)-2-methoxy-5-((5,6,7-trimethoxy-4-oxochroman-3-yl)methyl)phenyl 2-((tert-butoxycarbonyl)amino)-3-phenylpropanoate]",–,blocked neovascularization in vivo; also recorded: significantly decreased neovascular area
